Assay results taken from ChEMBL document CHEMBL3808363, “2-(Thienothiazolylimino)-1,3-thiazolidin-4-ones inhibit cell division cycle 25 A phosphatase” (Bioorg Med Chem, 2016).
The source made the active and inactive calls. The rule behind the calls is not given here.

How the values were obtained:
[1] = target: T1, M-phase inducer phosphatase 1 (Homo sapiens) (UniProt P30304); assay: (§1) Inhibition of human recombinant full length GST-tagged CDC25A transfected in Escherichia coli BL21-DE3 using 3-O-methylfluorescein phosphate as substrate at 10 uM incubated for 20 mins followed by substrate addition measured every 10 mins for 2 hrs by fluorimetric assay in presence of 0.1% triton X 100
T1 sequence (whole entry): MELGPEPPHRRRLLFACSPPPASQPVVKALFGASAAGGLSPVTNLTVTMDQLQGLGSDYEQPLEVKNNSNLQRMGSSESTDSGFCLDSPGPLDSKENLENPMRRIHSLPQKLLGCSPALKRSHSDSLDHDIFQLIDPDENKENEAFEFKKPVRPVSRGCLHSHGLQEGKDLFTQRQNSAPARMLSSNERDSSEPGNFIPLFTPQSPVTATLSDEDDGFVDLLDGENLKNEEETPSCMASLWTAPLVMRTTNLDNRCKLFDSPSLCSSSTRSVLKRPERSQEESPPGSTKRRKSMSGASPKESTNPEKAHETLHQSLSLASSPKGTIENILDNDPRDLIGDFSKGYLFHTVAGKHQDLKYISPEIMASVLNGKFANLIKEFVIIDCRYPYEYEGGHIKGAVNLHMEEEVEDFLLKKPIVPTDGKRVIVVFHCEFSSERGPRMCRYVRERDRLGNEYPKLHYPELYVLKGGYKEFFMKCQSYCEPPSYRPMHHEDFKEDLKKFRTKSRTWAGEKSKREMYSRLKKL

MDA-MB-231 [2] = assay: Induction of autophagy in human MDA-MB-231 cells assessed as acidic vesicles at 8.4 uM over 3 days by acridine orange dye based flow cytometry; assay type: functional, cell-based
[3] = target: T2, M-phase inducer phosphatase 1 (Homo sapiens, UniProt P30304); assay: Inhibition of human recombinant full length GST-tagged CDC25A transfected in Escherichia coli BL21-DE3 using 3-O-methylfluorescein phosphate as substrate incubated for 20 mins followed by substrate addition measured every 10 mins for 2 hrs by fluorimetric assay
T2 sequence (P30304 whole entry): T1 sequence (whole entry)

MDA-MB-231 [4] = assay: Cell cycle arrest in human MDA-MB-231 cells assessed as accumulation at G2/M phase at IC50 concentration after 48 hrs by propidium iodide staining-based flow cytometry (reference value: 20.9 +/- 1.1%); assay type: functional
[5] = target: T2, M-phase inducer phosphatase 1; assay: (§2) Mixed type inhibition of human recombinant full length GST-tagged CDC25A transfected in Escherichia coli BL21-DE3 assessed as enzyme/substrate/inhibitor complex using 3-O-methylfluorescein phosphate as substrate at 5 uM incubated for 20 mins followed by substrate addition measured every 10 mins for 2 hrs by fluorimetric assay
MDA-MB-231 [6] = assay: Cell cycle arrest in human MDA-MB-231 cells assessed as accumulation at subG1 phase at IC50 concentration after 48 hrs by propidium iodide staining-based flow cytometry; assay type: functional
[7] = target: T2, M-phase inducer phosphatase 1; assay: as §2, with “at 20” for “at 5”
HT-29 = assay: Cytotoxicity against human HT-29 cells assessed as inhibition of cell growth after 72 hrs by MTT assay; assay type: functional, cell-based; conditions: HT-29, 72 h
MCF7 [8] = assay: Increase in peroxynitryl radical levels in human MCF7 cells at IC50 concentration incubated for 24 hrs by DHR dye based flow cytometry; assay type: functional, cell-based
MCF7 [9] = assay: Cell cycle arrest in human MCF7 cells assessed as accumulation at G0/G1 phase at IC50 concentration after 48 hrs by propidium iodide staining-based flow cytometry (reference value: 66.7 +/- 1.6%); assay type: functional
MDA-MB-231 [10] = assay: Cytotoxicity against human MDA-MB-231 cells assessed as inhibition of cell growth at IC50 concentration after 72 hrs by trypan blue assay; assay type: functional
MDA-MB-231 [11] = assay: Induction of apoptosis in human MDA-MB-231 cells assessed as chromatin condensation after 24 to 48 hrs by DAPI staining based UV fluorescent microscopy; assay type: functional, cell-based
[12] = target: T3, M-phase inducer phosphatase 2 (Homo sapiens) (UniProt P30305); assay: Inhibition of human recombinant GST-tagged CDC25B catalytic domain transfected in Escherichia coli BL21-DE3 using 3-O-methylfluorescein phosphate as substrate at 10 uM incubated for 20 mins followed by substrate addition measured every 10 mins for 2 hrs by fluorimetric assay
T3 sequence (whole entry): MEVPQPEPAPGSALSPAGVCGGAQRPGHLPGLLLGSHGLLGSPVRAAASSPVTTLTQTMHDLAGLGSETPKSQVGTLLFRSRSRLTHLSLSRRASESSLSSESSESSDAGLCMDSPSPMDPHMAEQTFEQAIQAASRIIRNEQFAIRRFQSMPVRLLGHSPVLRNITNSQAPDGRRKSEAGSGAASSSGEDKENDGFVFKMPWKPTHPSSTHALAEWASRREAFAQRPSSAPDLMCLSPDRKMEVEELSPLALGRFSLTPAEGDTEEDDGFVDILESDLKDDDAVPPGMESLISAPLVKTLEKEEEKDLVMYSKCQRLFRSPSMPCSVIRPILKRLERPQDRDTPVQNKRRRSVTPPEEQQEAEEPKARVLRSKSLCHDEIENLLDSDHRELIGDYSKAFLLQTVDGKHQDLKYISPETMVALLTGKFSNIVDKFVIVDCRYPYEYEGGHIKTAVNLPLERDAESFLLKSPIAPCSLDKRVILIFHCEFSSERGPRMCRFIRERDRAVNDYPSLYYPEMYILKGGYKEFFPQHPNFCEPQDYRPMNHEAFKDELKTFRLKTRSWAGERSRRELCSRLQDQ

[13] = target: Cyclin-dependent kinase 1 (Homo sapiens) (UniProt P06493); assay: Effect on CDK1 phosphorylation in human MDA-MB-231 after 6 hrs by Western blot analysis
Chain of Cyclin-dependent kinase 1 (Homo sapiens) (P06493 whole entry, looked up): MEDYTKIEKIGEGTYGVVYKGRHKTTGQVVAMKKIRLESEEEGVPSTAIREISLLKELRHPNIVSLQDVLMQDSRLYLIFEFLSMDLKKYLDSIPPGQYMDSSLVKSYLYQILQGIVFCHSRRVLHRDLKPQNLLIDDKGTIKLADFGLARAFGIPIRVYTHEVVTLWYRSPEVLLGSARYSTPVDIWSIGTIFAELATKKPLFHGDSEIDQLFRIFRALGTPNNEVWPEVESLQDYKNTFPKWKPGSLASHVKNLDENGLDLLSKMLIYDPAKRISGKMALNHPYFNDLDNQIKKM

MDA-MB-231 [14] = assay: Cell cycle arrest in human MDA-MB-231 cells assessed as accumulation at S phase at IC50 concentration after 48 hrs by propidium iodide staining-based flow cytometry (reference value: 21.7 +/- 0.3%); assay type: functional
[15] = target: T1, M-phase inducer phosphatase 1 (Homo sapiens); assay: Inhibition of human recombinant full length GST-tagged CDC25A transfected in Escherichia coli BL21-DE3 using 3-O-methylfluorescein phosphate as substrate at 10 uM incubated for 20 mins followed by substrate addition measured every 10 mins for 2 hrs by fluorimetric assay
[16] = target: Cyclin-dependent kinase 1 (Homo sapiens) (UniProt P06493); assay: Effect on CDK1 phosphorylation in human MCF7 cells after 6 hrs by Western blot analysis; assay type: cell-based
MDA-MB-231 [17] = assay: Cytotoxicity against human MDA-MB-231 cells assessed as inhibition of cell growth after 72 hrs by MTT assay; assay type: functional, cell-based; conditions: MDA-MB-231, 72 h
MCF7 [18] = assay: Cytotoxicity against human MCF7 cells assessed as inhibition of cell growth at IC50 concentration after 72 hrs by trypan blue assay; assay type: functional
MCF7 [19] = assay: Antiproliferative activity against human MCF7 cells assessed as cell viability at IC50 concentration after 48 hrs by 2',7'-dichlorofluorescin diacetate/PI staining based flow cytometry; assay type: functional
MDA-MB-231 [20] = assay: Increase in RNS levels in human MDA-MB-231 cells at IC50 concentration incubated for 24 hrs by DAF-2DA dye based flow cytometry; assay type: functional, cell-based
[21] = target: T1, M-phase inducer phosphatase 1 (Homo sapiens); assay: as §1, with “0.05%” for “0.1%”
MDA-MB-231 [22] = assay: Increase in peroxynitryl radical levels in human MDA-MB-231 cells at IC50 concentration incubated for 24 hrs by DHR dye based flow cytometry; assay type: functional, cell-based
[23] = target: T1, M-phase inducer phosphatase 1 (Homo sapiens); assay: as §1, with “0.01%” for “0.1%”

## COc1ccc(/C=C2/S/C(=N\c3nc4cc(-c5ccc(Cl)cc5)sc4s3)NC2=O)cc1
[1]
  inhibition: 86.2%
MDA-MB-231 [2]
  Activity: inactive
[3]
  IC50: 6.2 µM
MDA-MB-231 [4]
  Activity: 15.9%
[5]
  Ki: 12.2 µM
MDA-MB-231 [6]
  Activity: inactive
[7]
  Ki: 3.9 µM
HT-29
  IC50: 10.3 µM
MCF7 [8]
  Activity: Active
MCF7 [9]
  Activity: 58.8%
MDA-MB-231 [10]
  growth inhibition (GI): 70%
MDA-MB-231 [11]
  Activity: inactive
[12]
  inhibition: 36.7%
[13]
  Activity: inactive
MDA-MB-231 [14]
  Activity: 25.8%
[15]
  inhibition: 70.3%
[16]
  Activity: inactive
MDA-MB-231 [17]
  IC50: 8.4 µM
MCF7 [18]
  growth inhibition (GI): 45%
MCF7 [19]
  Activity: inactive
MDA-MB-231 [20]
  Activity: Active
[21]
  inhibition: 54.4%
MDA-MB-231 [22]
  Activity: Active
[23]
  inhibition: 28.2%
